In US20230115350A1 (Cedilla Therapeutics, Inc., priority 2021, published 2023):

Assays:
[1] = target: TEAD1 protein (YAP Binding Domain) (Homo sapiens, UniProt P28347); test: TEAD1 lipid pocket compound displacement assay (TR-FRET, Cy5-probe); settings: 60 minutes incubation at room temperature; TR-FRET 665 nm/620 nm; read-out: CDA IC50
Outline: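 His-tagged TEAD1 YAP-binding domain pre-mixed with a Cy5-labelled lipid-pocket probe and Tb-anti-His antibody; compounds incubated with the complex 60 min at room temperature. TR-FRET read at 665/620 nm; IC50 from 4-parameter non-linear fit of probe displacement.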

NCI-H226 = test: 72H TEAD Proliferation Assay (Cell Titer-Glo 2.0); type: cell-based; settings: Homo sapiens, NCI-H226, 72 h, CTG 2.0, cell line not given
Method: The effect of TEAD inhibition on cell proliferation was assayed using Cell Titer Glo (CTG) 2.0 to measure response in mesothelioma cell lines NCI-H226 (ATCC, #CRL-5826) and NCI-H28 (ATCC, #CRL-5820).
The 72H TEAD Proliferation assay utilizes Cell Titer-Glo 2.0 (Promega, #G9243) to measure the proliferation of cells in the presence or absence of compound. Cell Titer-Glo 2.0 determines the amount of viable cells by quantifying ATP (an indication of metabolically active cells). It utilizes the conversion of Luciferin to Oxyluciferin and a luminescent signal with the use of ATP to report the quantity of viable cells in culture. Within cells that are continually growing, ATP is being synthesized to meet their metabolic demands, meanwhile the opposite is true for cells that are dying or slowing down their proliferation and either no longer using ATP or are using less, respectively. The NF2-deficient NCI-H226 has been genetically validated as a cell line that is sensitive to TEAD inhibition. The NF2-wild type NCI-H28 has been genetically validated as a cell line that is not sensitive to TEAD inhibition and grows independently of TEAD activity.
Compounds were screened against the responsive NCI-H226 cell line to assess the compounds' ability to inhibit TEAD and cell growth. Compounds were also screened against the non-responsive NCI-H28 cell line to ascertain whether the inhibition of cell growth was due to inhibition of the target TEAD or whether the inhibition was due to off-target cytotoxicity.
1) Assay ready plates (ARPs) were prepared by Echo acoustic liquid handler. For each compound, duplicate of 10-point half-log dilution series were dispensed in a 384-well microplate (Corning 3571).
5) NCI-H226 or NCI-H28 cells were harvested from culture in Assay Medium 1 and the multidrop Combi reagent dispenser was used to seed cells at 500 cells per 50 ul in each well of the ARPs and one Corning 3571 plate without compounds for Time 0 (TO) readout.
6) The TO plate was incubated for 2 hours at 37° C. with 5% CO2 to allow cells to settle, then the CTG Assay was performed.
7) All ARPs were incubated for 72 hours at 37° C. with 5% CO2, then the CTG Assay was performed for Time 72H (T72) readout.
8) CTG Assay: Bravo liquid handler (Agilent) was used to add 25 ul of CTG 2.0 to all columns of the plate except for Column 24, which was used to subtract out the background. After CTG addition, plates were placed on shaker at 800 RPM for 15 minutes at room temperature and kept in the dark. Luminescence was measured using EnVision multilabel plate reader with ultra-sensitive detection module.
9) Data Analysis: First background luminescence (no CTG wells) was subtracted from luminescence reading of all wells, then TO luminescence was subtracted from T72 luminescence. To compare anti-proliferative effect of compounds, GI50 was obtained by fitting dose response curves with nonlinear regression curve fit.

Chain of TEAD1 protein (YAP Binding Domain) (P28347 209-426 limits assumed): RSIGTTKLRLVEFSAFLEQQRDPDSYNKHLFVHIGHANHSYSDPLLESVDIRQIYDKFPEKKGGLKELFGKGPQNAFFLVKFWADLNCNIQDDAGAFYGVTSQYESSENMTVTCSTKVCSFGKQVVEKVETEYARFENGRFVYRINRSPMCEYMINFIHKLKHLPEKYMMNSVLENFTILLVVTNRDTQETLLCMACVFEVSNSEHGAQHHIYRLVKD

SMILES | IC50 [1] | GI50 (NCI-H226)
C=CC(=O)Nc1ccc(OCc2ccc(F)c(F)c2)c(C#N)c1 [Compound 40, N-(3-cyano-4-((3,4-difluorobenzyl)oxy)phenyl)acrylamide] | 500 to 2000 nM | 1000 to 3000 nM
C=CC(=O)Nc1ccc(OCc2cncc(C(F)(F)F)c2)c(C#N)c1 [Compound 41, N-(3-cyano-4-((5-(trifluoromethyl)pyridin-3-yl)methoxy)phenyl)acrylamide] | > 2000 nM | > 3000 nM
C=CC(=O)Nc1ccc(OCc2cncc(C(F)(F)F)c2)cc1C#N [Compound 42, N-(2-cyano-4-((5-(trifluoromethyl)pyridin-3-yl)methoxy)phenyl)acrylamide] | > 2000 nM | 250 to 1000 nM
C=CC(=O)Nc1ccc(OCC2CCC(F)(F)CC2)c2ccccc12 [Compound 49, N-(4-((4,4-difluorocyclohexyl)methoxy)naphthalen-1-yl)acrylamide] | ≤ 250 nM | ≤ 250 nM
C=CC(=O)Nc1ccc(OCC2CCC(F)(F)CC2)c(C#N)c1 [Compound 50, N-(3-cyano-4-((4,4-difluorocyclohexyl)methoxy)phenyl)acrylamide] | ≤ 250 nM | ≤ 250 nM
C=CC(=O)Nc1ccc(OCc2cccc(F)c2)c(C)c1 [Compound 51, N-(4-((3-fluorobenzyl)oxy)-3-methylphenyl)acrylamide] | 250 to 500 nM | > 3000 nM
C=CC(=O)Nc1ccc(OCC2CCOCC2)c(F)c1 [Compound 54, N-(3-fluoro-4-((tetrahydro-2H-pyran-4-yl)methoxy)phenyl)acrylamide] | > 2000 nM | 1000 to 3000 nM
C=CC(=O)Nc1ccc(OCC2CCCCC2)c(F)c1 [Compound 55, N-(4-(cyclohexylmethoxy)-3-fluorophenyl)acrylamide] | ≤ 250 nM | 250 to 1000 nM
C=CC(=O)Nc1ccc(OCc2csc3ccccc23)c(F)c1 [Compound 60, N-(4-(benzo[b]thiophen-3-ylmethoxy)-3-fluorophenyl)acrylamide] | 500 to 2000 nM | > 3000 nM
C=CC(=O)Nc1ccc(OCc2ccc(C#N)s2)c(F)c1 [Compound 63, N-(4-((5-cyanothiophen-2-yl)methoxy)-3-fluorophenyl)acrylamide] | 500 to 2000 nM | 1000 to 3000 nM
C=CC(=O)Nc1ccc(OCc2cncc(C)c2)c(F)c1 [Compound 71, N-(3-fluoro-4-((5-methylpyridin-3-yl)methoxy)phenyl)acrylamide] | > 2000 nM | > 3000 nM
C=CC(=O)Nc1ccc(OCc2ccc(Cl)nc2)c(F)c1 [Compound 72, N-(4-((6-chloropyridin-3-yl)methoxy)-3-fluorophenyl)acrylamide] | 500 to 2000 nM | > 3000 nM
C=CC(=O)Nc1ccc(OCc2cccnc2Br)c(F)c1 [Compound 74, N-(4-((2-bromopyridin-3-yl)methoxy)-3-fluorophenyl)acrylamide] | > 2000 nM | > 3000 nM
C=CC(=O)Nc1ccc(OCc2cccnc2Cl)c(F)c1 [Compound 76, N-(4-((2-chloropyridin-3-yl)methoxy)-3-fluorophenyl)acrylamide] | > 2000 nM | > 3000 nM
C=CC(=O)Nc1ccc(OCc2cc(F)ccc2Cl)c(F)c1 [Compound 78, N-(4-((2-chloro-5-fluorobenzyl)oxy)-3-fluorophenyl)acrylamide] | 500 to 2000 nM | > 3000 nM
C=CC(=O)Nc1ccc(OCc2cccc(F)c2Cl)c(F)c1 [Compound 83, N-(4-((2-chloro-3-fluorobenzyl)oxy)-3-fluorophenyl)acrylamide] | ≤ 250 nM | 250 to 1000 nM
C=CC(=O)Nc1ccc(OCc2ccc(F)cc2Cl)c(F)c1 [Compound 84, N-(4-((2-chloro-4-fluorobenzyl)oxy)-3-fluorophenyl)acrylamide] | 500 to 2000 nM | 1000 to 3000 nM

SMILES | IC50 [1] | GI50 (NCI-H226)
C=CC(=O)Nc1ccc(OCC2CCCC(C(F)(F)F)C2)c(F)c1 (stereo not drawn) [Compound 91, N-(3-fluoro-4-((3-(trifluoromethyl)cyclohexyl)methoxy)phenyl)acrylamide] | ≤ 250 nM | 250 to 1000 nM
C=CC(=O)Nc1ccc(OCc2ccc(F)c(F)c2)c(F)c1 [Compound 96, N-(4-((3,4-difluorobenzyl)oxy)-3-fluorophenyl)acrylamide] | ≤ 250 nM | 250 to 1000 nM
C=CC(=O)Nc1ccc(OCc2cnc(C(F)(F)F)nc2)c(F)c1 [Compound 98, N-(3-fluoro-4-((2-(trifluoromethyl)pyrimidin-5-yl)methoxy)phenyl)acrylamide] | > 2000 nM | 1000 to 3000 nM
C=CC(=O)Nc1ccc(OCc2cccc(Cl)c2F)c(F)c1 [Compound 99, N-(4-((3-chloro-2-fluorobenzyl)oxy)-3-fluorophenyl)acrylamide] | ≤ 250 nM | > 3000 nM
C=CC(=O)Nc1ccc(OCc2cccc(F)c2)c(F)c1 [Compound 100, N-(3-fluoro-4-((3-fluorobenzyl)oxy)phenyl)acrylamide] | 250 to 500 nM | > 3000 nM
C=CC(=O)Nc1ccc(NCc2cccc(F)c2)c(F)c1 [Compound 101, N-(3-fluoro-4-((3-fluorobenzyl)amino)phenyl)acrylamide] | 500 to 2000 nM | 1000 to 3000 nM
C=CC(=O)Nc1ccc(OCCC(F)(F)F)c(F)c1 [Compound 103, N-(3-fluoro-4-(3,3,3-trifluoropropoxy)phenyl)acrylamide] | > 2000 nM | 1000 to 3000 nM
C=CC(=O)Nc1ccc(OCc2cncc(C(F)(F)F)c2)c(F)c1 [Compound 104, N-(3-fluoro-4-((5-(trifluoromethyl)pyridin-3-yl)methoxy)phenyl)acrylamide] | 250 to 500 nM | 250 to 1000 nM
C=CC(=O)Nc1ccc(OC(C)c2cccc(C(F)(F)F)c2)c(F)c1 (stereo not drawn) [Compound 105, N-(3-fluoro-4-(1-(3-(trifluoromethyl)phenyl)ethoxy)phenyl)acrylamide] | ≤ 250 nM | 250 to 1000 nM
C=CC(=O)Nc1ccc(Oc2cccc(F)c2)c(F)c1 [Compound 106, N-(3-fluoro-4-(3-fluorophenoxy)phenyl)acrylamide] | ≤ 250 nM | > 3000 nM
C=CC(=O)Nc1ccc(Oc2ccc(F)cc2)c(F)c1 [Compound 107, N-(3-fluoro-4-(4-fluorophenoxy)phenyl)acrylamide] | ≤ 250 nM | 250 to 1000 nM
C=CC(=O)Nc1ccc(Nc2ccc(F)cc2)c(F)c1 [Compound 108, N-(3-fluoro-4-((4-fluorophenyl)amino)phenyl)acrylamide] | > 2000 nM | 250 to 1000 nM
C=CC(=O)Nc1ccc(NCC2CCC(F)(F)CC2)c(F)c1 [Compound 109, N-(4-(((4,4-difluorocyclohexyl)methyl)amino)-3-fluorophenyl)acrylamide] | 250 to 500 nM | 250 to 1000 nM
C=CC(=O)Nc1ccc(Oc2cccc(C(C)(C)C)c2)c(F)c1 [Compound 110, N-(4-(3-(tert-butyl)phenoxy)-3-fluorophenyl)acrylamide] | 250 to 500 nM | 1000 to 3000 nM
C=CC(=O)Nc1ccc(Oc2ccc(C(C)(C)C)cc2)c(F)c1 [Compound 111, N-(4-(4-(tert-butyl)phenoxy)-3-fluorophenyl)acrylamide] | ≤ 250 nM | 250 to 1000 nM
C=CC(=O)Nc1ccc(Oc2ccccc2)c(F)c1 [Compound 112, N-(3-fluoro-4-phenoxyphenyl)acrylamide] | 250 to 500 nM | > 3000 nM
